{"source": "patent US7964191B2", "about": "“Compositions and methods for the treatment of ophthalmic disease” (Allergan, Inc., priority 2006, dated 2011)", "key": {"[1]": {"test_system": "exudative age related macular degeneration", "assay": "Treatment of a patient with exudative age related macular degeneration", "assay_type": "in vivo, human", "procedure": "A patient suffering from exudative age related macular degeneration in the right eye is given a subretinal injection of a biodegradable implant containing 1 μg total of equimolar amounts of oligonucleotide pair 4 (SEQ ID NO: 36 and SEQ ID NO: 37) in a volume of 100 μl. The eye is monitored weekly for 16 weeks.\nA patient is diagnosed with exudative age-related macular degeneration.\nThe patient is given an subconjunctival injection of a solution containing 10 mg of 1,1′-[1,4,phenylene-bis(methylene)]-bis-1,4,8,11-tetraazacyclotetradecane (AMD3100), see Bridger et al., US2004/0209921, incorporated by reference herein) in each eye once every two weeks for 6 months. The patient is monitored bimonthly and visual acuity tested."}, "[2]": {"test_system": "ARPE-19 cells", "assay": "Oxidative stress/cell viability (WST) assay in ARPE-19 cells exposed to t-BH", "assay_type": "cell-based", "procedure": "ARPE 19 cells (American Type Tissue Collection (ATTC) Number CRL2302) were plated at a cell density of 6×10^4 cells per 10 cm tissue culture dish, in Delbecco's Modified Eagle's Medium (DMEM) F12 containing 10% fetal bovine serum (FBS) and 1% antibiotic/antimycotic solution (10,000 units of penicillin G (sodium salt), 10,000 μg/ml of streptomycin sulfate, and 25 μg/ml of amphotericin B in 0.85% saline) incubated at 37° C. overnight.\nThese oligonucleotides or control oligonucleotides (Stealth RNAi negative control Med GC (Invitrogen, Inc.)) were added in 1.5 ml of OptiMem® media (Gibco BRL) to a final concentration of 25 nM. In a separate equal volume of OptiMem® media, 15 μl of lipofectamine reagent (Lipofectamine® 2000, Invitrogen, Inc.) was similarly added to equal volume of OptiMem® media and incubated at room temperature for 5 minutes.\nBoth solutions were then mixed together and further incubated for 20 minutes at room temperature. The cells were washed once with OptiMem® media, the total volume of the mixture was brought up to 10 ml with OptiMem® media (Gibco BRL) and then added to the cells. Cells were permitted to incubate overnight at 37° C. 24 hours following transfection, the transfection mixture was removed and 10 ml of fresh DMEM F12 media added to the cells. […]\nCell viability was measured using the WST assay (Chemicon International, Inc.) according to the manufacturer's instructions. […] Thus, the formazan dye produced by viable cells can be quantified by a multiwell spectrophotometer (microplate reader) by measuring the absorbance of the dye solution at 440 nm.\nIn this case, 10 μl of WST-1 reagent was added to each well after 24 hours. The optimum assay development time was determined to be 1.5 hours. Plates were then read in a Spectramax M2 Platereader® at 450 nm. […]"}, "[3]": {"test_system": "CXCR4 mRNA", "assay": "CXCR4 RNA expression in ARPE-19 cells by whole human genome array hybridization", "assay_type": "cell-based", "conditions": "for expression of intact intracellular CXCR4 RNA: cells uninduced with t-BH, compared to cells untreated with siRNA or given control siRNA, FIG. 3", "procedure": "To isolate RNA from cells, 1 ml Qiazol® (a phenol/guanidinium isothiocyanate-based RNAse inhibitory lysis buffer sold by Qiagen, Inc.) was added to the ARPE-19 cells and the lysates then scraped into 2 ml tubes. 200 μl of chloroform per ml of Qiazol® was then added, the tubes mixed and centrifuged at 12,000×g for 15 minutes at 4° C. The aqueous phase was removed and applied to an RNeasy® mini column (Qiagen), washed and the column eluted with water. Five micrograms of the eluate were used for subsequent RT-PCR reactions. RT-PCR reactions were carried out using the Stratascript® First Strand Synthesis System (Stratagene). The RNA was denatured at 65° C. for 5 minutes, cooled at RT for 10 minutes then incubated at 42° C. for 60 minutes with reverse transcriptase.\nA whole human genome DNA oligonucleotide array (Agilent Technnologies, G4112A array) was used to hybridize against RNA samples prepared from ARPE-19 cells treated with t-BH. This 44K slide format contains a collection of 60-mer oligonucleotides with sequences representing over 41 K human genes and transcripts.\nRNA labeling was performed using the Low RNA Input Fluorescent Linear Amplification kit (LIK®) from Agilent Technologies (#5184-3523) following the manufacturer's recommendations. Briefly, 200 ng of total RNA from the ARPE-19 cells isolated as described in Example 2 were reverse transcribed in a 20 μL volume using with 1 μL Moloney Murine Leukemia Virus reverse transcriptase (MMLV-RT) and 1.2 μL of T7 promoter primer in 1× First Strand Buffer at 40° C. for 2 hours. From the double-stranded DNA preparation, transcription and direct labeling were prepared in 80 μL at 40° C. for 2 hours using 0.8 μL of T7 RNA polymerase, 0.6 μL inorganic pyrrophosphatase, 2.4 μL of each Cy-dye-CTP at 10 mM (PerkinElmer/NEN Life Sciences Cyanine-3-CTP #NEL580 and Cyanine-5-CTP #NEL581) in 4% PEG solution and 1× Transcription buffer. Cyanine dyes are highly sensitive fluorescent dyes.\nAmplified and labeled cRNA was purified on Rneasy® mini columns (Qiagen, Inc.) according to manufacturer's protocol. cRNA was quantified by absorbance at 260 nm, 550 nm and 650 nm. Once labeling is complete, both Cy3 and Cy5 RNA samples are combined and hybridized to the microarray using the Agilent In Situ Hybridization kit (#5184-3568) following Agilent's recommendations.\nBriefly 750 ng of cyanine 3-labeled linearly amplified cRNA and 750 ng of cyanine 5-labeled linearly amplified cRNA are combined to 1× control targets, 0.5× fragmentation buffer. This 2× target solution is denaturated at 60° C. for 30 minutes and 1× hybridization buffer in a 500 μL final volume is added to terminate the fragmentation reaction.\nThe target solution is then dispensed onto the 44K microarray. Incubation time was 17 hours at 60° C. in a hybridization oven with rotation at 4 rpm (Agilent Technologies #G2545A). Washes were performed for 5 minutes in 6×SSPE, 0.005% N-lauroyl sarcosine at room temperature, then for 5 minutes in 0.06×SSPE, 0.005% N-lauroyl sarcosine at room temperature, and finally for 30 seconds in Agilent Stabilization and Drying Solution®. The dried slides were scanned using a microarray scanner.\nTotal RNA was isolated from the cells (uninduced with t-BH) and the amount of CXCR4 RNA determined by gene array hybridization. The amount of CXCR4 in the naïve cells are standardized as “100%”."}, "[4]": {"conditions": "Example 8, subconjunctival 10 mg each eye every two weeks for 6 months"}}}
{"compound": "c1cc(CN2CCCNCCNCCCNCC2)ccc1CN1CCCNCCNCCCNCC1", "note": "[AMD3100, 1,1′-[1,4,phenylene-bis(methylene)]-bis-1,4,8,11-tetraazacyclotetradecane]", "values": [{"measurement": "fluorescein angiography: leakage of blood into retinal tissues", "setting": "[1]; Example 8, end of six-month treatment", "result": "no detectable leakage of blood into retinal tissues"}, {"measurement": "visibly apparent extent of retinal degeneration", "setting": "[1]; Example 8, end of six-month treatment versus beginning of study", "result": "no increase in the visibly apparent extent of retinal degeneration"}, {"measurement": "increase in visual acuity, left eye", "setting": "[1]; [4]", "result": "one"}, {"measurement": "increase in visual acuity, right eye", "setting": "[1]; [4]", "result": "two"}]}
{"compound": "CC(C)(C)OO", "note": "[t-BH, tertiary-butylhydroperoxide]", "values": [{"measurement": "cells surviving for at least 24 hours", "setting": "[2]; ARPE-19 cells exposed to t-BH for 3 hours, then non t-BH-containing media", "result": "approximately 70%"}, {"measurement": "cell death", "setting": "[2]; ARPE-19 cells exposed to t-BH for 6 hours", "result": "cell death by 24 hours"}, {"measurement": "expression of CXCR4 RNA over baseline", "setting": "[3]; ARPE-19 cells, immediately after six hours' incubation with t-BH", "result": 30, "unit": "fold"}, {"measurement": "increase in expression of CXCR4 RNA over baseline", "setting": "[3]; ARPE-19 cells, immediately after three hours' exposure to t-BH, untreated cells as baseline", "result": 20, "unit": "fold"}, {"measurement": "reduction in CXCR4 expression after recovery", "setting": "[3]; t-BH for three hours, then further three hours in t-BH-free medium", "result": "almost no reduction in CXCR4 expression"}, {"measurement": "decrease in CXCR4 RNA after recovery", "setting": "[3]; t-BH for three hours, then further twenty four hours in t-BH-free medium, versus levels immediately following exposure", "result": "approximately 35%"}]}
{"compound": "Pair 1: anti-CXCR4 double-stranded siRNA, SEQ ID NO: 10 and SEQ ID NO: 11 (chain 1 AACAGUGGAAGAAAGCUAGGGGCUC; chain 2 GAGGCCCUAGCUUUCUUCCACUGUU; listed as RNA, chemistry not given here)", "values": [{"measurement": "inhibition of cell death induced by oxidative stress (WST cell viability)", "setting": "[2]; ARPE-19 cells, 300 uM t-BH for 6 hours, siRNA at 10 nM or 25 nM, FIG. 2", "result": "inhibits the cell death induced by oxidative stress (exposure to 300 uM t-BH) in a dose-dependent fashion"}, {"measurement": "expression of intact intracellular CXCR4 RNA", "setting": "[3]", "result": "reduce the expression of intact intracellular CXCR4 RNA"}]}
{"compound": "Pair 2: anti-CXCR4 siRNA, SEQ ID NO: 12 and SEQ ID NO: 13 (chain 1 AACAGUGGAAGAAAGCUAGGGCCUC; chain 2 GAGGCCCUAGCUUUCUUCCACUGUU; listed as RNA, chemistry not given here)", "values": [{"measurement": "expression of intact intracellular CXCR4 RNA", "setting": "[3]", "result": "reduce the expression of intact intracellular CXCR4 RNA"}]}
{"compound": "Pair 3: anti-CXCR4 siRNA, SEQ ID NO: 14 and SEQ ID NO: 15 (chain 1 CUUGGAGUGUGACAGCUUGGAGAUG; chain 2 CAUCUCCAAGCUGUCACACUCCAAG; listed as RNA, chemistry not given here)", "values": [{"measurement": "expression of intact intracellular CXCR4 RNA", "setting": "[3]", "result": "reduce the expression of intact intracellular CXCR4 RNA"}]}
{"compound": "Pair 4: anti CXCR4 siRNA, SEQ ID NO: 36 and SEQ ID NO: 37 (chain 1 CCCACCAUCUACUCCAUCAUCUUCU; chain 2 AGAAGAUGAUGGAGUAGAUGGUGGG; listed as RNA, chemistry not given here)", "values": [{"measurement": "extent of macular degeneration", "setting": "[1]; Example 6, end of the 16 week period", "result": "no increase in the extent of macular degeneration is observed"}, {"measurement": "improvement in visual acuity", "setting": "[1]; Example 6, right eye, subretinal biodegradable implant, 1 μg total, by week 3, maintained for 16 weeks", "result": "two"}]}
